The source of these data is ChEMBL document CHEMBL3507680, “University of Dundee, Gates Library screen for HepG2 cell viability”.

The data set in a line: Human HepG2 cell viability assay in 384 well format. Particulars: HepG2 cells, read-out: Inhibition. More on the design: dose 125 nL, time 70.5 hour; cytotoxicity at 70.5 h: concentration not given beside the values. Format: toxicity, cell-based.
`O=C(c1nnn(-c2ccccc2F)c1-c1ccccn1)N1CCSCC1`: the cytotoxicity at 70.5 h is -0.794%.
In the case of `COc1cccc(CN2CCC3(CC2)CCN(c2ncc(F)cn2)C3)c1`, the cytotoxicity at 70.5 h was 0.909%.
Consider `CN1C(=O)c2cccc(NC(=O)c3cccc(S(C)(=O)=O)c3)c2C1=O`, for which the cytotoxicity at 70.5 h is -4.72%.
On to `Cc1ccc(CNCc2cccc3cccnc23)c(OC2CCOC2)c1` (centres undefined), for which the cytotoxicity at 70.5 h worked out at 12.2%.
The figure for `Cc1cc(C)n(CC2CCCN2C(=O)c2cccc3c2OCO3)n1` (centres undefined) is -3.49%; for `CN1CCS(=O)(=O)[C@@H]2CCN(C(=O)c3ccccc3)CC[C@@H]21` it is -9.02%; for `CCn1ncc(C(=O)NCCc2nc(-c3ccc(C)cc3)n[nH]2)c1C` it is -0.645%.
For `Cn1nc(C(=O)N2CCCCC2c2nc3cc(F)ccc3[nH]2)ccc1=O` (centres undefined), the cytotoxicity at 70.5 h was 6.51%.
Then `Cc1noc(C)c1S(=O)(=O)N1CCC(n2cccn2)CC1`, with -5.3%; and `O[C@]12CCNC[C@H]1CN(c1nccc3ccccc13)CC2`, with 22.6%; and `Cc1ccc(N2CCCC(NCc3ccccn3)C2)nn1` (centres undefined), with 25.6%.
Turning to `COc1cccc(CC(=O)N2CC[C@@H](OC)[C@@H]2Cc2cccnc2)c1`, the cytotoxicity at 70.5 h is -4.93%.
On to `Cc1nn(C)c(Oc2ccccc2)c1CNC1CCCCNC1=O` (centres undefined), for which the cytotoxicity at 70.5 h is -6.4%.
For `CNc1cncc(C2CCCN2Cc2ccnc(C)n2)n1` (centres undefined), the cytotoxicity at 70.5 h is -0.507%.
With `CC(C)c1nc(CN(C)C(=O)C2CC(=O)N(Cc3ccncc3)C2)cs1` (centres undefined), the cytotoxicity at 70.5 h was found to be 5.05%.
For the compound `COc1ncccc1CNC(=O)c1cccc(C)n1`, the cytotoxicity at 70.5 h turned out to be 11.1%.
Then `O=C(NCc1cccnc1)[C@H]1CN2CCC1C[C@@H]2Cn1cc(CO)nn1` (some centres undefined), with -6.61%; and `COc1ccc(CNCc2ccc(N3CCCCC3)nc2)cc1OC`, with -4.42%.
The figure for `CC(C)OCCN1CCC(Nc2ncccn2)CC1` is 0.193%.
For `COc1c(C2CCCN2c2ncnc3c2cnn3C)c(C)nn1C` (centres undefined), the cytotoxicity at 70.5 h was -5.32%.
Regarding `Cc1nc(CCNC(=O)C2CC(=O)N(C(C)(C)C)C2)sc1C` (centres undefined), the cytotoxicity at 70.5 h is -8.11%.
Then `COCCn1cnc2ccc(NC(=O)C(C)C)cc2c1=O`, with -7.01%; and `CN1CCN(S(=O)(=O)c2ncn(C)c2Cl)CC1`, with -5.44%.
Then `Cc1cscc1C(=O)N1CCCC1CC(=O)c1cnn(C)c1` (centres undefined), with -5.58%; and `CSc1ccc(-c2cc(CN)nc3ccnn23)cc1`, with -12.2%.
For the compound `Cc1ccnn1-c1ccc(C(=O)N2CCN(c3cnccn3)CC2)cc1`, the cytotoxicity at 70.5 h is -0.832%.
Take `COc1ccc(CN2CCc3nc(C4CCCCN4C)ncc3C2)cc1` (centres undefined): the cytotoxicity at 70.5 h was -10.4%.
The figure for `CC(C)S(=O)(=O)N1CCCC(c2nccn2Cc2cccnc2)C1` (centres undefined) is -8.01%; for `CCS(=O)(=O)c1ccc(N2CCC(NC(C)=O)CC2)cc1` it is -5.9%; for `CC(C(=O)Nc1ccc2ccccc2c1)N1CCC(n2ccnc2)CC1` (centres undefined) it is -4.02%.
The figure for `CCCc1n[nH]c(C2CN(CCC(F)(F)F)CCO2)n1` (centres undefined) is -5.18%; for `Cn1cnc2c1CCN(Cc1cccc(C(N)=O)c1)C2` it is -7.77%.
In the case of `CN1CCCN(C(=O)NCCNc2ncccn2)CC1`, the cytotoxicity at 70.5 h is 17.7%.
Then `Cc1cccc(C(=O)N2CCN(S(C)(=O)=O)[C@@H](C)C2)c1Cl`, with -102%; and `Cc1cc(C)nc(N2CCC(C(=O)Nc3n[nH]c(C(C)C)n3)CC2)n1`, with -11.5%.
Then `CC(NC(=O)NCc1cccnc1N(C)C)c1ccc(F)cc1` (centres undefined), with -23.2%; and `Cc1ccc(OC2CCN(C(=O)C(C)Cn3cccn3)CC2)cc1` (centres undefined), with 0.0943%.
Then `Cc1cc(CN(Cc2cccnc2)CC2CCCO2)on1` (centres undefined), with -1.62%; and `CCO[C@H]1COC[C@@H]1NC(=O)CCc1nc(-c2ccccc2)no1`, with -8.01%.
